This assay has as its system Conditioned Avoidance Response (CAR). Nature of the assay: Conditioned Avoidance Response (CAR) test in mice, oral. Particulars: female white mice, moving average method. It is filed as in vivo, mouse (female white mice).

Experimental findings from patent publication US4438120A, “Pyridoindolobenzodiazepine tranquilizers” (E. I. Du Pont de Nemours & Company, priority 1982, dated 1984) are described below.

Procedure: The paradigm used for predicting tranquilizer activity was a Conditioned Avoidance Response (CAR) test in mice. Female white mice, 19-23 g, were used. The apparatus modified from Bovet, D. et al., Science, 163, 139-149 (1969), was a one-way shuttlebox with 0.4 mA scrambled electric footshock as unconditioned stimulus (US) and a 6 watt white light plus a relay buzzer as conditioned stimuli (CS). Mice were conditioned by three sets of 1-5 trials on day 1, then were fasted for 17-21 hours. The conditioned mice were tested for retention of the conditioned response on day 2, and then were dosed orally with test drug at doses such as 0, 1, 3, 9, 27 and 81 mg/kg. ED50 values (doses at which 50% of the animals would be expected to show response failure) were calculated by the moving average method [Thompson, W. R., Bact. Rev., 11, 115 (1947)].

As to `CCCCCCN1CC[C@@H]2[C@@H](C1)c1cc(Cl)cc3c1N2c1ccc(C)cc1CN3` (relative stereo) [Example 108], the “Mouse CAR ED50 (avoidance ED50, dose at which 50% of the animals would be expected to show response failure)” value is 2.5 mg/kg.
Under `CCN1CC[C@@H]2[C@@H](C1)c1cc(C(F)(F)F)cc3c1N2c1ccccc1CN3C` (relative stereo) [Example 107] stands 10.1 mg/kg; under `Clc1cc2c3c(c1)c1c(n3-c3ccccc3CN2)CCN(CC2CCCCC2)C1` [Example 68, 6-Chloro-3-cyclohexylmethyl-1,2,3,4,8,9-hexahydropyrido[4',3':2,3]indolo[1,7-ab][1,4]benzodiazepine], 7.1 mg/kg.
The value for `CCN1CCc2c(c3cccc4c3n2-c2ccccc2C(=O)N4)C1` [Example 32] was 27 mg/kg.
Under `CN1CCc2c(c3cc(C(F)(F)F)cc4c3n2-c2ccc(Cl)cc2C(=O)N4)C1` [Example 17] stands 37 mg/kg; under `CN1CCc2c(c3cc(Cl)cc4c3n2-c2ccc(Cl)cc2C(=O)N4)C1` [Example 14], 31 mg/kg.
For the compound `Clc1ccc2c(c1)CNc1cccc3c4c(n-2c13)CCNC4` [Example 61], the “Mouse CAR ED50 (avoidance ED50, dose at which 50% of the animals would be expected to show response failure)” value worked out at 34 mg/kg.
Under `CN1Cc2ccccc2-n2c3c(c4cc(C(F)(F)F)cc1c42)CNCC3` [Example 62] stands above 81 mg/kg; under `CCN1CC[C@@H]2[C@@H](C1)c1c(Cl)ccc3c1N2c1ccccc1CN3` (relative stereo) [Example 102], 5.8 mg/kg; under `Cc1ccc2c(c1)C(=O)Nc1cc(Cl)cc3c4c(n-2c13)CCN(C)C4` [Example 13], 10.5 mg/kg.
Under `CN1CCc2c(c3c(Cl)ccc4c3n2-c2ccccc2C(=O)N4)C1` [Example 10] stands 19.7 mg/kg; under `CN1CCc2c(c3cc(C(F)(F)F)cc4c3n2-c2ccccc2C(=O)N4)C1` [Example 18], above 81 mg/kg.
Under `CN1Cc2ccccc2N2c3c(cccc31)[C@@H]1CN(Cc3ccccc3)CC[C@H]12` (relative stereo) [Example 112] stands 6.8 mg/kg.
As to `Cc1ccc2c(c1)C(=O)Nc1ccc(Cl)c3c4c(n-2c13)CCNC4` [Example 9], the “Mouse CAR ED50 (avoidance ED50, dose at which 50% of the animals would be expected to show response failure)” value was above 81 mg/kg.
Under `O=C1Nc2cccc3c4c(n(c23)-c2ccc(Cl)cc21)CCNC4` [Example 7] stands 25 mg/kg.
Under `Clc1ccc2c(c1)CNc1cccc3c1N2[C@@H]1CCN(CCc2ccccc2)C[C@@H]31` (relative stereo) [Example 114] stands 5.2 mg/kg; under `O=C(CCCN1CCc2c(c3cc(Cl)cc4c3n2-c2ccccc2C(=O)N4)C1)c1ccc(F)cc1` [Example 40], 47 mg/kg.
Under `FC(F)(F)c1cc2c3c(c1)[C@@H]1CN(CC4CC4)CC[C@H]1N3c1ccccc1CN2` (relative stereo) [Example 110] stands 15.6 mg/kg; under `CN1CC[C@@H]2[C@@H](C1)c1cccc3c1N2c1ccccc1CN3` (relative stereo) [Example 97], 9.0 mg/kg; under `O=C1Nc2cccc3c4c(n(c23)-c2cc(Cl)ccc21)CCNC4` [Example 8], above 54 mg/kg.
For the compound `O=C1Nc2cc(Cl)cc3c4c(n(c23)-c2ccccc21)CCNC4` [Example 4], the “Mouse CAR ED50 (avoidance ED50, dose at which 50% of the animals would be expected to show response failure)” value was found to be 29 mg/kg.
Consider `Clc1ccc2c(c1)CNc1cccc3c4c(n-2c13)CCN(CCc1ccccc1)C4` [Example 69], for which the “Mouse CAR ED50 (avoidance ED50, dose at which 50% of the animals would be expected to show response failure)” value is 27 mg/kg.
The value for `CCN1CC[C@@H]2[C@@H](C1)c1cc(C(F)(F)F)cc3c1N2c1ccccc1CN3` (relative stereo) [Example 103] was 1.2 mg/kg; that for `CCCCCCCCCCN1CCc2c(c3cc(Cl)cc4c3n2-c2ccccc2C(=O)N4)C1` [Example 44] was above 162 mg/kg; that for `CN1CC[C@@H]2[C@@H](C1)c1cc(Cl)cc3c1N2c1ccc(Cl)cc1CN3` (relative stereo) [Example 100] was 2.1 mg/kg.
Under `CCCCCCN1CCc2c(c3cc(Cl)cc4c3n2-c2ccccc2C(=O)N4)C1` [Example 37] stands 11.8 mg/kg; under `Cc1ccc2c(c1)CNc1cc(Cl)cc3c1N2[C@@H]1CCN(C)C[C@@H]31` (relative stereo) [Example 101], 0.69 mg/kg.
Under `CN1CCc2c(c3cccc4c3n2-c2ccc(Cl)cc2C(=O)N4)C1` [Example 12] stands 12 mg/kg; under `CCCCCCN1CCc2c(c3cccc4c3n2-c2ccccc2C(=O)N4)C1` [Example 35], 56.2 mg/kg; under `O=C1Nc2cccc3c4c(n(c23)-c2ccccc21)CCN(CC1CCCCC1)C4` [Example 38], 56.2 mg/kg.
In the case of “5-Chloro-1,2,3,4-tetrahydro-3-(3-oxobutyl)pyrido[4',3':2,3]indolo[1,7-ab][1,4]benzodiazepin-8(9H)-one [Example 52]”, the “Mouse CAR ED50 (avoidance ED50, dose at which 50% of the animals would be expected to show response failure)” value came out at 39 mg/kg.
With `CCN1CC[C@@H]2[C@@H](C1)c1cc(Cl)cc3c1N2c1ccccc1CN3.Cl.Cl` (relative stereo) [Example 96, trans-6-Chloro-3-ethyl-1,2,3,4,4a,8,9,14a-octahydropyrido[4',3':2,3]indolo[1,7-ab][1,4]benzodiazepine, Dihydrochloride], the “Mouse CAR ED50 (avoidance ED50, dose at which 50% of the animals would be expected to show response failure)” value amounted to 0.3 mg/kg.
Under `CCCCCCN1CCc2c(c3c(Cl)ccc4c3n2-c2ccc(C)cc2C(=O)N4)C1` [Example 41] stands above 81 mg/kg; under `Cl.O=C(O)CCCN1CCc2c(c3cc(Cl)cc4c3n2-c2ccccc2C(=O)N4)C1` [Example 51, 6-Chloro-1,2,8,9-tetrahydro-9-oxopyrido[4',3':2,3]indolo[1,7-ab][1,4]benzodiazepin-3(4H)-butanoic acid hydrochloride], 56.2 mg/kg.
The value for `Cc1ccc2c(c1)C(=O)Nc1ccc(Cl)c3c4c(n-2c13)CCN(C)C4` [Example 19] was above 81 mg/kg; that for `O=C1Nc2cc(C(F)(F)F)cc3c4c(n(c23)-c2ccccc21)CCNC4` [Example 5] was 81 mg/kg.
In the case of `CCCCCCN1CCc2c(c3cccc4c3n2-c2ccc(Cl)cc2C(=O)N4)C1` [Example 43], the “Mouse CAR ED50 (avoidance ED50, dose at which 50% of the animals would be expected to show response failure)” value was above 81 mg/kg.
Under `CCCN1CCc2c(c3cc(Cl)cc4c3n2-c2ccccc2C(=O)N4)C1` [Example 34] stands 13.6 mg/kg; under `CCN1CC[C@@H]2[C@@H](C1)c1cc(Cl)cc3c1N2c1ccccc1CN3C` (relative stereo) [Example 106], 5.8 mg/kg; under `CCCN1CCc2c(c3c(Cl)ccc4c3n2-c2ccccc2C(=O)N4)C1` [Example 33], 21.7 mg/kg.
On to `CCCCCCN1CCc2c(c3cc(Cl)cc4c3n2-c2ccc(C)cc2C(=O)N4)C1` [Example 42], for which the “Mouse CAR ED50 (avoidance ED50, dose at which 50% of the animals would be expected to show response failure)” value was 162 mg/kg.
Under `CC(C)N1CCc2c(c3cccc4c3n2-c2ccccc2C(=O)N4)C1` [Example 31, 1,2,3,4-Tetrahydro-3-(2-propyl)pyrido[4',3':2,3]indolo[1,7-ab][1,4]benzodiazepin-9(8H)-one] stands 23 mg/kg; under `CN1CC[C@@H]2[C@@H](C1)c1cccc3c1N2c1ccc(Cl)cc1CN3` (relative stereo) [Example 99], 1.4 mg/kg; under `CN1CCc2c(c3cc(Cl)cc4c3n2-c2ccccc2C(=O)N4)C1` [Example 11], 67 mg/kg.
The value for `CCN1CC[C@@H]2[C@@H](C1)c1cccc3c1N2c1ccc(Cl)cc1CN3` (relative stereo) [Example 105] was 24 mg/kg; that for `Cc1ccc2c(c1)C(=O)Nc1cc(Cl)cc3c4c(n-2c13)CCN(CCc1ccccc1)C4` [Example 16] was 47 mg/kg; that for `Cc1ccc2c(c1)C(=O)Nc1cccc3c4c(n-2c13)CCNC4` [Example 6] was 24 mg/kg.
Under `Cc1ccc2c(c1)C(=O)Nc1cc(Cl)cc3c4c(n-2c13)CCNC4` [Example 20] stands above 81 mg/kg.
For the compound `CCCCCCN1CCc2c(c3c(Cl)ccc4c3n2-c2ccccc2C(=O)N4)C1` [Example 36], the “Mouse CAR ED50 (avoidance ED50, dose at which 50% of the animals would be expected to show response failure)” value was 52 mg/kg.
Under `Clc1cc2c3c(c1)c1c(n3-c3ccccc3CN2)CCNC1` [Example 59, 6-Chloro-1,2,3,4,8,9-hexahydropyrido[4',3':2,3]indolo[1,7-ab][1,4]benzodiazepine] stands 9.0 mg/kg.
